Assay [1] has as its target T1, Human Neuropeptide Y2 Receptor (Homo sapiens, UniProt P49146).
T1 construct: purchased CHEMICON HTS066M
T1 sequence (P49146 1-381): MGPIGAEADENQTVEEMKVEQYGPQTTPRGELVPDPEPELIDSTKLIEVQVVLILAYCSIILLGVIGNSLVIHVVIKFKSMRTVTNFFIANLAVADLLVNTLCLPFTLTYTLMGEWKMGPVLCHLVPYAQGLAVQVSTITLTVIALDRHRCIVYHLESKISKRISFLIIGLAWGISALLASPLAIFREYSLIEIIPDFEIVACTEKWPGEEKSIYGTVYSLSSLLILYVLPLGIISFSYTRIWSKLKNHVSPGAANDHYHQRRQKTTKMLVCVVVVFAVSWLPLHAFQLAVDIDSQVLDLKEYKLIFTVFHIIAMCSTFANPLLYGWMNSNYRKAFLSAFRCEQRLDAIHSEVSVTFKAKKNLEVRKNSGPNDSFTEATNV
Briefly: Radioligand binding competition assay (RLB). As to conditions: Table 3; human 125I-PYY (1-36) 0.02 nM, Y2 receptor membranes; read-out: Ki. The essentials:
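Membranes from cells expressing human Y2 receptor (0.5 μg protein/well) were incubated with radioligand and serially diluted peptides in 50 mM HEPES, 5 mM MgCl2, 1 mM CaCl2, 0.2% ovalbumin, pH 7.4, for 2 h at room temperature with shaking. Bound radioactivity was collected by filtration and counted; IC50 from sigmoidal nonlinear regression.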

The subject of assay [2] is normal NMRI mice. Briefly: Effect on acute food intake in normal NMRI mice. In kind it is in vivo. The conditions noted are these: male NMRI mice, 10 nmol/kg subcutaneously once. The method, then:
Male NMRI mice were obtained from Charles River (Charles River, Research Models & Services Germany GmbH) or from Jan Vier (Jan Vier Labs, France) at 5 weeks of age. […] Room temperature was controlled to 21° C.±1° C., with 60%+20% humidity.
Animals were transferred 5-7 days before the start of the study to a real-time food intake monitoring system, HM-2 system (MBRose, Denmark), to allow acclimatization to experimental conditions. As the animals were uniquely identified with microchips, each individual animal was identified by its microchip upon entry and exit from the food channel. Randomization of the mice for each study group (n=7-8) was based on body weight measured the day before the start of the study. A vehicle-treated (50 mM phosphate buffer pH7 with 5% Mannitol) group was included in each experiment. Six hours before the start of the night phase animals were fasted. One hour before the dark phase animals were dosed once subcutaneously (10 nmol/kg) with test peptide. […] The food intake of the treated groups was normalized (in %) to the average food intake of the group receiving vehicle (Table 7). Statistical significance was evaluated using One-way analysis of variance with Turkey's multiple comparison test. P<0.05 was considered statistically significant.

Each structure is given as a SMILES string.

For orientation: Ki means a measure of affinity in units of concentration, obtained from inhibition or displacement.

For `CC(C)CC(=O)N[C@@H](C)C(=O)N1CCC[C@H]1C(=O)N[C@@H](CCC(=O)O)C(=O)N[C@@H](CCCCNC(=O)COCCOCCNC(=O)COCCOCCNC(=O)CC[C@H](NC(=O)CCCCCCCCCCCCCCCCC(=O)O)C(=O)O)C(=O)N1CCC[C@H]1C(=O)N[C@@H](CCC(=O)O)C(=O)N[C@@H](CCC(=O)O)C(=O)N[C@@H](CC(=O)O)C(=O)N[C@@H](C)C(=O)N[C@@H](CO)C(=O)N1CCC[C@H]1C(=O)N[C@@H](CCC(=O)O)C(=O)N[C@@H](CCC(=O)O)C(=O)N[C@H](C(=O)N[C@@H](CCC(N)=O)C(=O)N[C@@H](CCCNC(=N)N)C(=O)N[C@@H](Cc1ccc(O)cc1)C(=O)N[C@@H](Cc1ccc(O)cc1)C(=O)N[C@H](C(=O)N[C@H](C(=O)N[C@@H](CC(C)C)C(=O)N[C@@H](CCCNC(=N)N)C(=O)N[C@@H](Cc1c[nH]cn1)C(=O)N[C@@H](Cc1ccc(O)cc1)C(=O)N[C@@H](Cc1ccc(O)cc1)C(=O)N[C@@H](CC(N)=O)C(=O)N[C@@H](Cc1c[nH]c2ccccc12)C(=O)N[C@@H](CC(C)C)C(=O)N[C@H](C(=O)N[C@@H](CCCNC(=N)N)C(=O)N[C@@H](CCC(N)=O)C(=O)N[C@@H](CCCNC(=N)N)C(=O)N[C@@H](Cc1ccc(O)cc1)C(N)=O)[C@@H](C)O)[C@@H](C)O)C(C)C)[C@@H](C)O` [Compound 16, N{alpha-4}-(3-methylbutanoyl)-N{epsilon-7}-[2-(2-{2-[2-(2-{2-[(4S)-4-carboxy-4-(17-carboxyheptadecanamido)butanamido]ethoxy}ethoxy)acetamido]ethoxy}ethoxy)acetamido]-[4A,7K,9E,17T,18Q,22V,23T,28Y,30W,31L]hPYY (4-36)], the Ki in assay [1] stood at 3.09 nM. Also, the “Acute Food Intake 24 h [% vehicle]” value in assay [2] came out at 67 % vehicle.
For `CC(C)CC(=O)N[C@@H](C)C(=O)N1CCC[C@H]1C(=O)N[C@@H](CCC(=O)O)C(=O)N[C@@H](CCCCNC(=O)COCCOCCNC(=O)COCCOCCNC(=O)CC[C@H](NC(=O)CCCCCCCCCCCCCCCCC(=O)O)C(=O)O)C(=O)N1CCC[C@H]1C(=O)N[C@@H](CCC(=O)O)C(=O)N[C@@H](CCC(=O)O)C(=O)N[C@@H](CC(=O)O)C(=O)N[C@@H](C)C(=O)N[C@@H](CO)C(=O)N1CCC[C@H]1C(=O)N[C@@H](CCC(=O)O)C(=O)N[C@@H](CCC(=O)O)C(=O)N[C@@H](CC(C)C)C(=O)N[C@@H](CCC(N)=O)C(=O)N[C@@H](CCCCN)C(=O)N[C@@H](Cc1ccc(O)cc1)C(=O)N[C@@H](Cc1ccc(O)cc1)C(=O)N[C@H](C(=O)N[C@@H](CO)C(=O)N[C@@H](CC(C)C)C(=O)N[C@@H](CCCNC(=N)N)C(=O)N[C@@H](Cc1c[nH]cn1)C(=O)N[C@@H](Cc1ccc(O)cc1)C(=O)N[C@@H](Cc1ccc(O)cc1)C(=O)N[C@@H](CC(N)=O)C(=O)N[C@@H](Cc1c[nH]c2ccccc12)C(=O)N[C@@H](CC(C)C)C(=O)N[C@H](C(=O)N[C@@H](CCCNC(=N)N)C(=O)N[C@@H](CCC(N)=O)C(=O)N[C@@H](CCCNC(=N)N)C(=O)N[C@@H](Cc1ccc(O)cc1)C(N)=O)[C@@H](C)O)C(C)C` [Compound 21, N{alpha-4}-(3-methylbutanoyl)-N{epsilon-7}-[2-(2-{2-[2-(2-{2-[(4S)-4-carboxy-4-(17-carboxyheptadecanamido)butanamido]ethoxy}ethoxy)acetamido]ethoxy}ethoxy)acetamido]-[4A,7K,9E,18Q,19K,22V,28Y,30W,31L]hPYY (4-36)], in that order: 1.52 nM and 89 % vehicle.
For `CC(C)CC(=O)N[C@@H](C)C(=O)N1CCC[C@H]1C(=O)N[C@@H](CCC(=O)O)C(=O)N[C@@H](CCCCNC(=O)COCCOCCNC(=O)COCCOCCNC(=O)CC[C@H](NC(=O)CCCCCCCCCCCCCCCCC(=O)O)C(=O)O)C(=O)N1CCC[C@H]1C(=O)N[C@@H](CCC(=O)O)C(=O)N[C@@H](CCC(=O)O)C(=O)N1CCC[C@H]1C(=O)N[C@@H](C)C(=O)N[C@@H](CO)C(=O)N1CCC[C@H]1C(=O)N[C@@H](CCC(=O)O)C(=O)N[C@@H](CCC(=O)O)C(=O)N[C@@H](CC(C)C)C(=O)N[C@@H](CCC(N)=O)C(=O)N[C@@H](CCCNC(=N)N)C(=O)N[C@@H](Cc1ccc(O)cc1)C(=O)N[C@@H](Cc1ccc(O)cc1)C(=O)N[C@H](C(=O)N[C@@H](CCC(=O)O)C(=O)N[C@@H](CC(C)C)C(=O)N[C@@H](CCCNC(=N)N)C(=O)N[C@@H](Cc1c[nH]cn1)C(=O)N[C@@H](Cc1ccc(O)cc1)C(=O)N[C@@H](Cc1ccc(O)cc1)C(=O)N[C@@H](CC(N)=O)C(=O)N[C@@H](Cc1c[nH]c2ccccc12)C(=O)N[C@@H](CC(C)C)C(=O)N[C@H](C(=O)N[C@@H](CCCNC(=N)N)C(=O)N[C@@H](CCC(N)=O)C(=O)N[C@@H](CCCNC(=N)N)C(=O)N[C@@H](Cc1ccc(O)cc1)C(N)=O)[C@@H](C)O)C(C)C` [Compound 33, N{alpha-4}-(3-methylbutanoyl)-N{epsilon-7}-[2-(2-{2-[2-(2-{2-[(4S)-4-carboxy-4-(17-carboxyheptadecanamido)butanamido]ethoxy}ethoxy)acetamido]ethoxy}ethoxy)acetamido]-[4A,7K,9E,11P,18Q,22V,23E,28Y,30W,31L]hPYY (4-36)], in that order: 0.45 nM and 54 % vehicle.
For `CC(C)CC(=O)N[C@@H](C)C(=O)N1CCC[C@H]1C(=O)N[C@@H](CCC(=O)O)C(=O)N[C@@H](CCCCNC(=O)COCCOCCNC(=O)COCCOCCNC(=O)CC[C@H](NC(=O)CCCCCCCCCCCCCCCCC(=O)O)C(=O)O)C(=O)N1CCC[C@H]1C(=O)N[C@@H](CCC(=O)O)C(=O)N[C@@H](CCC(=O)O)C(=O)N[C@@H](CC(=O)O)C(=O)N[C@@H](C)C(=O)N[C@@H](CO)C(=O)N1CCC[C@H]1C(=O)N[C@@H](CCC(=O)O)C(=O)N[C@@H](CCC(=O)O)C(=O)N[C@@H](CC(C)C)C(=O)N[C@@H](CCC(N)=O)C(=O)N[C@@H](CCC(N)=O)C(=O)N[C@@H](Cc1ccc(O)cc1)C(=O)N[C@@H](Cc1ccc(O)cc1)C(=O)N[C@H](C(=O)N[C@@H](CCC(=O)O)C(=O)N[C@@H](CC(C)C)C(=O)N[C@@H](CCCNC(=N)N)C(=O)N[C@@H](Cc1c[nH]cn1)C(=O)N[C@@H](Cc1ccc(O)cc1)C(=O)N[C@@H](Cc1ccc(O)cc1)C(=O)N[C@@H](CC(N)=O)C(=O)N[C@@H](Cc1c[nH]c2ccccc12)C(=O)N[C@@H](CC(C)C)C(=O)N[C@H](C(=O)N[C@@H](CCCNC(=N)N)C(=O)N[C@@H](CCC(N)=O)C(=O)N[C@@H](CCCNC(=N)N)C(=O)N[C@@H](Cc1ccc(O)cc1)C(N)=O)[C@@H](C)O)C(C)C` [Compound 49, N{alpha-4}-(3-methylbutanoyl)-N{epsilon-7}-[2-(2-{2-[2-(2-{2-[(4S)-4-carboxy-4-(17-carboxyheptadecanamido)butanamido]ethoxy}ethoxy)acetamido]ethoxy}ethoxy)acetamido]-[4A,7K,9E,18Q,19Q,22V,23E,28Y,30W,31L]hPYY (4-36)], in that order: 0.89 nM and 60 % vehicle.
